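Cells were grown in 96-well plates and exposed to each compound for 48 hours at five concentrations; endpoints were interpolated linearly between bracketing concentrations, or set to the highest concentration if not reached. GI50 is the concentration that inhibits growth by half.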 Calls of active or inactive are those of the source. Cut-off read from the data, not from the text of the source: active = GI50 up to about 1.1 µM and inactive = higher. Peptide text beside a SMILES is read from it. * marks the point of attachment. Cbz = O=C(OCc1ccccc1)*; CH2Cl = ClC*
What was measured:
Test in all cases: NCI tumour cell line growth inhibition, 48 h
ACHN = tested on: ACHN
CCRF-CEM = tested on: CCRF-CEM
HCC 2998 = tested on: HCC 2998
HOP-62 = tested on: HOP-62
HOP-92 = tested on: HOP-92
IGROV-1 = tested on: IGROV-1
MCF7 = tested on: MCF7
Malme-3M = tested on: Malme-3M
NCI-H460 = tested on: NCI-H460
NCI-H522 = tested on: NCI-H522
OVCAR-4 = tested on: OVCAR-4
PC-3 = tested on: PC-3
RXF 393 = tested on: RXF 393
SK-MEL-2 = tested on: SK-MEL-2
SNB-19 = tested on: SNB-19
SW-620 = tested on: SW-620
T47D = tested on: T47D
TK-10 = tested on: TK-10
U-251 = tested on: U-251
UACC-62 = tested on: UACC-62

Compound | GI50 (ACHN) | GI50 (CCRF-CEM) | GI50 (HCC 2998) | GI50 (HOP-62) | GI50 (HOP-92) | GI50 (IGROV-1) | GI50 (MCF7) | GI50 (Malme-3M) | GI50 (NCI-H460) | GI50 (NCI-H522) | GI50 (OVCAR-4) | GI50 (PC-3) | GI50 (RXF 393) | GI50 (SK-MEL-2) | GI50 (SNB-19) | GI50 (SW-620) | GI50 (T47D) | GI50 (TK-10) | GI50 (U-251) | GI50 (UACC-62)
COc1ccc(Nc2nc3cc(C(F)(F)F)ccc3nc2C(=O)O)cc1OC | 26.7 µM (inactive) | 16.2 µM (inactive) | 35.7 µM (inactive) | 35 µM (inactive) | 19 µM (inactive) | 36.5 µM (inactive) | 45.2 µM (inactive) | 42.9 µM (inactive) | 37.6 µM (inactive) | 30.4 µM (inactive) | 35.4 µM (inactive) | 36.9 µM (inactive) | 23.3 µM (inactive) | 11.1 µM (inactive) | 24 µM (inactive) | 47.2 µM (inactive) | 27.7 µM (inactive) | 34.4 µM (inactive) | 35.8 µM (inactive) | 23.7 µM (inactive)
C=CC(c1ccccc1)[C@@]1(OC(C)=O)C(=O)C(=O)OC1C1COC(C)(C)O1 (stereo not given in full) | 5.78 µM (inactive) | 2.84 µM (inactive) | 17.2 µM (inactive) | 17.3 µM (inactive) | 5.92 µM (inactive) | 15.3 µM (inactive) | 5.68 µM (inactive) | 15.2 µM (inactive) | 14.5 µM (inactive) | 3.77 µM (inactive) | 14.9 µM (inactive) | 10.9 µM (inactive) | 4.68 µM (inactive) | 16.4 µM (inactive) | 19.5 µM (inactive) | 8.13 µM (inactive) | 13.2 µM (inactive) | 14.1 µM (inactive) | 14.3 µM (inactive) | 14.1 µM (inactive)
COc1cc(-c2coc3c(OC)c(OC4OC(CO)C(O)C(O)C4O)c(OC)cc3c2=O)cc(OC)c1C (stereo not given) | 7.55 µM (inactive) | 3.75 µM (inactive) | 3.89 µM (inactive) | 15.2 µM (inactive) | 17.7 µM (inactive) | 4.65 µM (inactive) | 3.66 µM (inactive) | 15.3 µM (inactive) | 8.75 µM (inactive) | 3.36 µM (inactive) | 13.1 µM (inactive) | 7.01 µM (inactive) | 2.56 µM (inactive) | 16.1 µM (inactive) | 6.81 µM (inactive) | 6.1 µM (inactive) | 9.14 µM (inactive) | 18.4 µM (inactive) | 3.7 µM (inactive) | 4.42 µM (inactive)
O=C(N/N=C\c1ccc([N+](=O)[O-])cc1)Nc1cccc2ccccc12 | 27.5 µM (inactive) | > 100 µM (inactive) | 24.1 µM (inactive) | 5.93 µM (inactive) | 6.15 µM (inactive) | > 63.2 µM (inactive) | > 43.7 µM (inactive) | 27.7 µM (inactive) | > 37.3 µM (inactive) | 20.4 µM (inactive) | > 25.9 µM (inactive) | 23 µM (inactive) | 11 µM (inactive) | 5.55 µM (inactive) | 5.07 µM (inactive) | > 100 µM (inactive) | > 23.1 µM (inactive) | 14.5 µM (inactive) | 4.79 µM (inactive) | 13.2 µM (inactive)
CC(C)CC(NC(=O)OCc1ccccc1)C(=O)NC(Cc1ccccc1)C(=O)CCl (stereo not drawn) (Cbz-Leu-Phe-CH2Cl; configuration not given here) | 4.25 µM (inactive) | 0.204 µM (active) | 13.2 µM (inactive) | 16.1 µM (inactive) | 1.89 µM (inactive) | 2 µM (inactive) | 2.55 µM (inactive) | 1.92 µM (inactive) | 6.5 µM (inactive) | 1.38 µM (inactive) | 2.08 µM (inactive) | 4.76 µM (inactive) | 1.7 µM (inactive) | 2.05 µM (inactive) | 23.6 µM (inactive) | 1.57 µM (inactive) | 2.21 µM (inactive) | 1.82 µM (inactive) | 8.38 µM (inactive) | 2.71 µM (inactive)
Cc1ccc(C2NC(=O)c3ccccc3N2)c(C)c1 (stereo not given) | 6.82 µM (inactive) | 1.63 µM (inactive) | 4.52 µM (inactive) | 5.13 µM (inactive) | 9.53 µM (inactive) | 4.62 µM (inactive) | 1.07 µM (active) | 1.69 µM (inactive) | 3.07 µM (inactive) | 1.88 µM (inactive) | 2.68 µM (inactive) | 1.66 µM (inactive) | 3.91 µM (inactive) | 1.77 µM (inactive) | 3.96 µM (inactive) | 1.05 µM (active) | 6.01 µM (inactive) | 7.33 µM (inactive) | 2.59 µM (inactive) | 1.26 µM (inactive)

— ChEMBL document CHEMBL1201862, “PubChem BioAssay data set” (2004)
